# Paper PMC10396955, “2-Oxabicyclo[2.1.1]hexanes as saturated bioisosteres of the ortho-substituted phenyl ring” (Nature Chemistry, 2023)
# Assays:
# [1] = Chemical stability of carboxylic acids (acid, base, storage); format: physicochemical; settings: room temperature, one day
# Text: We also checked the chemical stability of three representative carboxylic acids, 1b, 19b and 22b (Table 2), because we suspected that some of them could decompose via a retro-Michael-type reaction. […] All products were crystalline solids, and we stored all of them in closed vials at room temperature on the shelf.
SMILES,chemical stability ([1]; aqueous 1 M hydrochloric acid),chemical stability ([1]; aqueous 1 M sodium hydroxide),melting point [°C]
Cc1cncc(C23COC(C2)C3C(=O)O)c1 (stereo not drawn) [Compound 22b],did not lead to any decomposition,did not lead to any decomposition,204 to 205
O=C(O)C1C2CC1(c1ccc(C(F)(F)F)cc1)CO2 (stereo not drawn) [Compound 19b],did not lead to any decomposition,did not lead to any decomposition,64 to 65
